In the supplement of paper PMC10307832:

Experiments:
Assay in all cases: relative viability (nuclei count vs DMSO), 5 days (fraction); higher = more cells survive
201T = tested on: 201T
How it was run: (§1)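 One day after seeding in 1536-well plates, lung cancer cell lines were dosed by pin tool. Dosing was either single-drug or a fixed anchor-drug dose plus five library-drug doses (not always all listed) in √10 steps. After 5 days, nuclei were stained in one fix-and-stain step and counted on 4× images, and relative viability is the nuclei count of treated wells over that of vehicle wells, given as the median of duplicate plates.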

HCC-44 = tested on: HCC-44
How it was run: as §1

HCC-15 = tested on: HCC-15
How it was run: as §1

EKVX = tested on: EKVX
How it was run: as §1

BEN = tested on: BEN
How it was run: as §1

A-427 = tested on: A-427
How it was run: as §1

SW 900 = tested on: SW 900
How it was run: as §1

NCI-H441 = tested on: NCI-H441
How it was run: as §1

HARA = tested on: HARA
How it was run: as §1

NCI-H1792 = tested on: NCI-H1792
How it was run: as §1

NCI-H650 = tested on: NCI-H650
How it was run: as §1

NCI-H596 = tested on: NCI-H596
How it was run: as §1

NCI-H23 = tested on: NCI-H23
How it was run: as §1

NCI-H358 = tested on: NCI-H358
How it was run: as §1

NCI-H2342 = tested on: NCI-H2342
How it was run: as §1

HCC-827 = tested on: HCC-827
How it was run: as §1

NCI-H838 = tested on: NCI-H838
How it was run: as §1

NCI-H1437 = tested on: NCI-H1437
How it was run: as §1

NCI-H1975 = tested on: NCI-H1975
How it was run: as §1

Compound: CC(=O)O[C@@]12CO[C@@H]1C[C@H](O)[C@@]1(C)C(=O)[C@H](O)C3=C(C)[C@@H](OC(=O)[C@H](O)[C@@H](NC(=O)OC(C)(C)C)c4ccccc4)C[C@@](O)([C@@H](OC(=O)c4ccccc4)[C@H]21)C3(C)C [Docetaxel] + NC(=O)Nc1cc(-c2cccc(F)c2)sc1C(=O)N[C@H]1CCCNC1 [AZD7762] (partner 0.2 µM)
- relative viability (201T; first compound 0.0002 µM): 0.528
- relative viability (201T; first compound 0.000632 µM): 0.623
- relative viability (201T; first compound 0.002 µM): 0.481
- relative viability (201T; first compound 0.006325 µM): 0.388
- relative viability (201T; first compound 0.02 µM): 0.246
- relative viability (HCC-44; first compound 0.0002 µM): 1.06
- relative viability (HCC-44; first compound 0.000632 µM): 1.07
- relative viability (HCC-44; first compound 0.002 µM): 1.07
- relative viability (HCC-44; first compound 0.006325 µM): 0.525
- relative viability (HCC-44; first compound 0.02 µM): 0.497
- relative viability (HCC-15; first compound 0.0002 µM): 1.18
- relative viability (HCC-15; first compound 0.000632 µM): 1.02
- relative viability (HCC-15; first compound 0.002 µM): 0.433
- relative viability (HCC-15; first compound 0.006325 µM): 0.289
- relative viability (HCC-15; first compound 0.02 µM): 0.256
- relative viability (EKVX; first compound 0.0002 µM): 0.736
- relative viability (EKVX; first compound 0.000632 µM): 0.638
- relative viability (EKVX; first compound 0.002 µM): 0.407
- relative viability (EKVX; first compound 0.006325 µM): 0.249
- relative viability (EKVX; first compound 0.02 µM): 0.132
- relative viability (BEN; first compound 0.0002 µM): 0.553
- relative viability (BEN; first compound 0.000632 µM): 0.822
- relative viability (BEN; first compound 0.002 µM): 0.483
- relative viability (BEN; first compound 0.006325 µM): 0.412
- relative viability (BEN; first compound 0.02 µM): 0.307
- relative viability (A-427; first compound 0.0002 µM): 0.729
- relative viability (A-427; first compound 0.000632 µM): 0.768
- relative viability (A-427; first compound 0.002 µM): 0.461
- relative viability (A-427; first compound 0.006325 µM): 0.266
- relative viability (A-427; first compound 0.02 µM): 0.222
- relative viability (SW 900; first compound 0.0002 µM): 0.452
- relative viability (SW 900; first compound 0.000632 µM): 0.234
- relative viability (SW 900; first compound 0.002 µM): 0.287
- relative viability (SW 900; first compound 0.006325 µM): 0.235
- relative viability (SW 900; first compound 0.02 µM): 0.161
- relative viability (NCI-H441; first compound 0.0002 µM): 1.06
- relative viability (NCI-H441; first compound 0.000632 µM): 1.15
- relative viability (NCI-H441; first compound 0.002 µM): 0.263
- relative viability (NCI-H441; first compound 0.006325 µM): 0.221
- relative viability (NCI-H441; first compound 0.02 µM): 0.167
- relative viability (HARA; first compound 0.0002 µM): 0.273
- relative viability (HARA; first compound 0.000632 µM): 0.201
- relative viability (HARA; first compound 0.002 µM): 0.105
- relative viability (HARA; first compound 0.006325 µM): 0.193
- relative viability (HARA; first compound 0.02 µM): 0.076
- relative viability (NCI-H1792; first compound 0.0002 µM): 0.666
- relative viability (NCI-H1792; first compound 0.000632 µM): 0.465
- relative viability (NCI-H1792; first compound 0.002 µM): 0.24
- relative viability (NCI-H1792; first compound 0.006325 µM): 0.0705
- relative viability (NCI-H1792; first compound 0.02 µM): 0.0512
- relative viability (NCI-H650; first compound 0.0002 µM): 0.946
- relative viability (NCI-H650; first compound 0.000632 µM): 0.485
- relative viability (NCI-H650; first compound 0.002 µM): 0.363
- relative viability (NCI-H650; first compound 0.006325 µM): 0.28
- relative viability (NCI-H650; first compound 0.02 µM): 0.239
- relative viability (NCI-H596; first compound 0.0002 µM): 1.07
- relative viability (NCI-H596; first compound 0.000632 µM): 0.934
- relative viability (NCI-H596; first compound 0.002 µM): 1
- relative viability (NCI-H596; first compound 0.006325 µM): 0.581
- relative viability (NCI-H596; first compound 0.02 µM): 0.397
- relative viability (NCI-H23; first compound 0.0002 µM): 0.241
- relative viability (NCI-H23; first compound 0.000632 µM): 0.246
- relative viability (NCI-H23; first compound 0.002 µM): 0.136
- relative viability (NCI-H23; first compound 0.006325 µM): 0.148
- relative viability (NCI-H23; first compound 0.02 µM): 0.103
- relative viability (NCI-H358; first compound 0.0002 µM): 0.429
- relative viability (NCI-H358; first compound 0.000632 µM): 0.328
- relative viability (NCI-H358; first compound 0.006325 µM): 0.24
- relative viability (NCI-H358; first compound 0.02 µM): 0.159
- relative viability (NCI-H2342; first compound 0.0002 µM): 0.46
- relative viability (NCI-H2342; first compound 0.000632 µM): 0.56
- relative viability (NCI-H2342; first compound 0.002 µM): 0.405
- relative viability (NCI-H2342; first compound 0.006325 µM): 0.41
- relative viability (NCI-H2342; first compound 0.02 µM): 0.363
- relative viability (HCC-827; first compound 0.0002 µM): 0.154
- relative viability (HCC-827; first compound 0.000632 µM): 0.239
- relative viability (HCC-827; first compound 0.002 µM): 0.165
- relative viability (HCC-827; first compound 0.006325 µM): 0.165
- relative viability (HCC-827; first compound 0.02 µM): 0.142
- relative viability (NCI-H838; first compound 0.0002 µM): 0.955
- relative viability (NCI-H838; first compound 0.000632 µM): 0.915
- relative viability (NCI-H838; first compound 0.002 µM): 0.639
- relative viability (NCI-H838; first compound 0.006325 µM): 0.606
- relative viability (NCI-H838; first compound 0.02 µM): 0.574
- relative viability (NCI-H1437; first compound 0.0002 µM): 1.08
- relative viability (NCI-H1437; first compound 0.000632 µM): 1.12
- relative viability (NCI-H1437; first compound 0.002 µM): 0.616
- relative viability (NCI-H1437; first compound 0.006325 µM): 0.281
- relative viability (NCI-H1437; first compound 0.02 µM): 0.141
- relative viability (NCI-H1975; first compound 0.0002 µM): 0.721
- relative viability (NCI-H1975; first compound 0.000632 µM): 0.601
- relative viability (NCI-H1975; first compound 0.002 µM): 0.389
- relative viability (NCI-H1975; first compound 0.006325 µM): 0.24
- relative viability (NCI-H1975; first compound 0.02 µM): 0.169
